Data from patent publication US9340590B2 (priority 2011, dated 2016).
pIC50: −log10 of the molar value. Positions of bridges follow the written chain, without caps; N, C: chain ends. Non-standard residues stand in square brackets, D forms with d. Residues, ends and D or L forms follow the SMILES beside them. Nva = CCC[C@H](N)C(=O)O; Abu = CC[C@H](N)C(=O)O

Legend:
Test in all cases: cell-based
[1] = target: hNav1.3 (Homo sapiens, UniProt Q9NY46); conditions: IonWorks Quattro, use-dependent protocol, hNav1.3; read-out: IWQ Use Nav1.3
[2] = target: hNav1.5 (Homo sapiens, UniProt Q14524); conditions: IonWorks Quattro, use-dependent protocol, hNav1.5; read-out: IWQ Use Nav1.5
[3] = target: hNav1.7 (Homo sapiens, UniProt Q15858); assay type: cell-based; conditions: IonWorks Quattro, use-dependent protocol, hNav1.7; read-out: IWQ Use Nav1.7

Chain of hNav1.5 (Q14524 whole entry, looked up): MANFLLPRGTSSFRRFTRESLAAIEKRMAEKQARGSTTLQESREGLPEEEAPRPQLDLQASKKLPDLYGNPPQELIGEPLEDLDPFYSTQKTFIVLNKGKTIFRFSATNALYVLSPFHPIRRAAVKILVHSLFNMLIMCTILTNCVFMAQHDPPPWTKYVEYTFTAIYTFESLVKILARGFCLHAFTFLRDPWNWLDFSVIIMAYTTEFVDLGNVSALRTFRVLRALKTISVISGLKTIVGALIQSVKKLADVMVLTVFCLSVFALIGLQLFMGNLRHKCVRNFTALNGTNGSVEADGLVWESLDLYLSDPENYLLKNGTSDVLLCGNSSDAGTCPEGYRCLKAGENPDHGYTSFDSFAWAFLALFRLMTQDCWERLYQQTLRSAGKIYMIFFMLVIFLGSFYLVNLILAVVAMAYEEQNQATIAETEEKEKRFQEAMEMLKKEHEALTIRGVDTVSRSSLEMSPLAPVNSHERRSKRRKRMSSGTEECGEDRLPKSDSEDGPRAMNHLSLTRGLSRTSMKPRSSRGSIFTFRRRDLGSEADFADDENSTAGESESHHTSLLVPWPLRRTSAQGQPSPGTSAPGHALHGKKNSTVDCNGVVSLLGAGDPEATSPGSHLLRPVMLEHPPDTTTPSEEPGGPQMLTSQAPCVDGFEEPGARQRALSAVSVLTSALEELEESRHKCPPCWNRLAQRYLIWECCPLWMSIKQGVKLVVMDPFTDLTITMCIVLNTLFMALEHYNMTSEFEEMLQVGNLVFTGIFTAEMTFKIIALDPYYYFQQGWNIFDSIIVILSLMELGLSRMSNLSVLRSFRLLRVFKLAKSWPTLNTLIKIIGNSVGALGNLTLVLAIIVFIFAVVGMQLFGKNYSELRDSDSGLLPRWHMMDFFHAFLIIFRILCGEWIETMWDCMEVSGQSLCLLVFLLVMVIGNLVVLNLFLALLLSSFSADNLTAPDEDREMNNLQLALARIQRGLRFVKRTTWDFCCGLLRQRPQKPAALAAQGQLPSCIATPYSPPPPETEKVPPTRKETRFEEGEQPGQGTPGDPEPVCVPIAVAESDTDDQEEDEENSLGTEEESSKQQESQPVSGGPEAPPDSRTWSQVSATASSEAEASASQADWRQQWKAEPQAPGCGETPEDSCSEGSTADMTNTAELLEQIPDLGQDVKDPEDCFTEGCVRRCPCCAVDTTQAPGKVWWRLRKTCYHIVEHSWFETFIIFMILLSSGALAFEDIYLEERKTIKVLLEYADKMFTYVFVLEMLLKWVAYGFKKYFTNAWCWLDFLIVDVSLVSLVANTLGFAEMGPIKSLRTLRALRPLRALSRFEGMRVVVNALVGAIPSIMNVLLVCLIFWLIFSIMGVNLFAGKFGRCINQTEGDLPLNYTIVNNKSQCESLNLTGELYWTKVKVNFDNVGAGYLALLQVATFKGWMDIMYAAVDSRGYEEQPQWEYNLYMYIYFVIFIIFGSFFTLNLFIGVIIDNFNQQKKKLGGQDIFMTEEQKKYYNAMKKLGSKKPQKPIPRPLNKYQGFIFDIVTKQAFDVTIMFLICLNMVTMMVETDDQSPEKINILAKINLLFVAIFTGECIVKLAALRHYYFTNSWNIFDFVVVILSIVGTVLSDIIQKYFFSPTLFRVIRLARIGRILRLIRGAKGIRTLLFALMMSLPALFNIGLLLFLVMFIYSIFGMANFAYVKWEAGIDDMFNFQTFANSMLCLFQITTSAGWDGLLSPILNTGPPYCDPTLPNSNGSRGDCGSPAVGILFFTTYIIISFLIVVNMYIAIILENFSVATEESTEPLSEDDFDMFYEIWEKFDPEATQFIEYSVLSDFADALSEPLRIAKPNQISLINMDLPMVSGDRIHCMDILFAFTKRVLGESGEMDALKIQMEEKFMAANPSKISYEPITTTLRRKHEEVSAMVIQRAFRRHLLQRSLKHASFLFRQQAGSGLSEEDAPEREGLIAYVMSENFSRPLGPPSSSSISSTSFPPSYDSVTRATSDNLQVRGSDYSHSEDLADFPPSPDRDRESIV
Chain of hNav1.3 (Q9NY46 whole entry, looked up): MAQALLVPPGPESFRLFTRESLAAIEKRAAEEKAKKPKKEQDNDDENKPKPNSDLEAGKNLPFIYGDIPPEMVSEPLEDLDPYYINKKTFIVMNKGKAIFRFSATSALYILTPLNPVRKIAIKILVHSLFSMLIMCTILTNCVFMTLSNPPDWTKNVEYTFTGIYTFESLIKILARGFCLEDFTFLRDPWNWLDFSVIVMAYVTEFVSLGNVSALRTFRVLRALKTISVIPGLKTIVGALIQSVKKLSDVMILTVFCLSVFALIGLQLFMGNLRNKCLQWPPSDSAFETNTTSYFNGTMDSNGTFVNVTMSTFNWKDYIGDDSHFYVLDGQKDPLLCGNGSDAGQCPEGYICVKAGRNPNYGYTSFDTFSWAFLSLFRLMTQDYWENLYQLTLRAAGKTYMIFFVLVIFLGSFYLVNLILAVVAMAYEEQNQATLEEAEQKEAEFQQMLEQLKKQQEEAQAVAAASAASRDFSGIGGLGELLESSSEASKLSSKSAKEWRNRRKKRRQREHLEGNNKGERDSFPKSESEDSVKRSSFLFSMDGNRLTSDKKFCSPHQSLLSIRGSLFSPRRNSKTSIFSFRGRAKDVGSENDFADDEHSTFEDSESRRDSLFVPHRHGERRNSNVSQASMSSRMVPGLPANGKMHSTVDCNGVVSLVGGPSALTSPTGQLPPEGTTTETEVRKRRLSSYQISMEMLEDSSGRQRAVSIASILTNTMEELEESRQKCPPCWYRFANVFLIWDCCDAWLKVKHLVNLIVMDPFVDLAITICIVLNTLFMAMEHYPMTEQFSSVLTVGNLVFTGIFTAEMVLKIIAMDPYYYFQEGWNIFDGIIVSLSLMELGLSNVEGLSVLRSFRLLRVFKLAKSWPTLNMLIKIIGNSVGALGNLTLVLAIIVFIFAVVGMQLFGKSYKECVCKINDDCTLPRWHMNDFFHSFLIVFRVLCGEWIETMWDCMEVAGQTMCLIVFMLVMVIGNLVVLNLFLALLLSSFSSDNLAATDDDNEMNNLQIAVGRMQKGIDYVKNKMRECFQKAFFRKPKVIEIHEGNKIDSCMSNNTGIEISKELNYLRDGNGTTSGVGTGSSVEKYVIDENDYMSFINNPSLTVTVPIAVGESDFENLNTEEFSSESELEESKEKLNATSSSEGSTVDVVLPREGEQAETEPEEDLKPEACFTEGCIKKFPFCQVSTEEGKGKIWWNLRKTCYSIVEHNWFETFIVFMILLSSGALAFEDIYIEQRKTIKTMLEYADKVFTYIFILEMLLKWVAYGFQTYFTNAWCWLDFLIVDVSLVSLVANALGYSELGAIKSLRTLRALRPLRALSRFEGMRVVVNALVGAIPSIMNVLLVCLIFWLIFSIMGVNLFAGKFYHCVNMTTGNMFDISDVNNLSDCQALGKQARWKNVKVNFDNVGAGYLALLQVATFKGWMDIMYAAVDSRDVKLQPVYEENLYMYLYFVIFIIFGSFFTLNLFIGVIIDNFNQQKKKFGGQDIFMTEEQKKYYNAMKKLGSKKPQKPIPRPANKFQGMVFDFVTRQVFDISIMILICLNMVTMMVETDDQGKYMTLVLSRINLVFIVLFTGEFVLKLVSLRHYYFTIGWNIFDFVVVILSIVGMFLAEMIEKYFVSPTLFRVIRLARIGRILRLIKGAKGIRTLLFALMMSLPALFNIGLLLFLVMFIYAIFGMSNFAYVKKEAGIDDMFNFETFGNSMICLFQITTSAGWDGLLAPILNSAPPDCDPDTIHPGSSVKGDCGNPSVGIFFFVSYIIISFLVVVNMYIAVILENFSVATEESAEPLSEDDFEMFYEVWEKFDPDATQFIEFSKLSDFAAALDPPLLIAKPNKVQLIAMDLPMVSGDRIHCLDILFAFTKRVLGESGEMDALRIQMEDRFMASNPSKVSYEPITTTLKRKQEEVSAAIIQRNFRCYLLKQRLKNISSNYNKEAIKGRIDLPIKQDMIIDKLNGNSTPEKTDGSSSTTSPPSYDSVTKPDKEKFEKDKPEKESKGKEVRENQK

Compound	pIC50 [1]	pIC50 [2]	pIC50 [3]
CCC[C@@H]1NC(=O)CNC(=O)[C@H](CC(C)C)NC(=O)[C@@H](NC(=O)[C@@H](N)CC(=O)O)CSSC[C@@H]2NC(=O)[C@@H]3CSSC[C@@H](C(=O)N[C@@H](CCCCN)C(=O)N[C@@H](Cc4ccc(O)cc4)C(=O)N[C@H](C(=O)N[C@@H](Cc4ccccc4)C(N)=O)C(C)C)NC(=O)[C@H](Cc4c[nH]c5ccccc45)NC(=O)[C@H](CCC(=O)O)NC(=O)[C@H](Cc4c[nH]cn4)NC(=O)[C@H]([C@@H](C)O)NC(=O)[C@H](CCCNC(=N)N)NC(=O)[C@H](CO)NC(=O)[C@H](CSSC[C@H](NC(=O)[C@H](CCCCN)NC(=O)[C@H](CCCNC(=N)N)NC(=O)[C@H](CCSC)NC1=O)C(=O)N[C@@H]([C@@H](C)CC)C(=O)N1CCC[C@H]1C(=O)N[C@@H](CC(=O)O)C(=O)N[C@@H](CC(N)=O)C(=O)N[C@@H](CC(=O)O)C(=O)N[C@@H](CCCCN)C(=O)N3)NC(=O)[C@H](C(C)C)NC(=O)[C@H](CC(C)C)NC(=O)[C@H](CC(N)=O)NC(=O)[C@@H]1CCCN1C(=O)[C@H](CCCNC(=N)N)NC2=O [compound 705] (H-DCLG[Nva]MRKCIPDNDKCCRPNLVCSRTHEWCKYVF-NH2; disulfide 2-17, 9-23, 16-30)	5.47	4.48	6.37
CC[C@@H]1NC(=O)CNC(=O)[C@H](CC(C)C)NC(=O)[C@@H](NC(=O)[C@@H](N)CC(=O)O)CSSC[C@@H]2NC(=O)[C@@H]3CSSC[C@@H](C(=O)N[C@@H](CCCCN)C(=O)N[C@@H](Cc4ccc(O)cc4)C(=O)N[C@H](C(=O)N[C@@H](Cc4ccccc4)C(N)=O)C(C)C)NC(=O)[C@H](Cc4c[nH]c5ccccc45)NC(=O)[C@H](CCC(=O)O)NC(=O)[C@H](Cc4c[nH]cn4)NC(=O)[C@H]([C@@H](C)O)NC(=O)[C@H](CCCNC(=N)N)NC(=O)[C@H](CO)NC(=O)[C@H](CSSC[C@H](NC(=O)[C@H](CCCCN)NC(=O)[C@H](CCCNC(=N)N)NC(=O)[C@H](CCSC)NC1=O)C(=O)N[C@@H]([C@@H](C)CC)C(=O)N1CCC[C@H]1C(=O)N[C@@H](CC(=O)O)C(=O)N[C@@H](CC(N)=O)C(=O)N[C@@H](CC(=O)O)C(=O)N[C@@H](CCCCN)C(=O)N3)NC(=O)[C@H](C(C)C)NC(=O)[C@H](CC(C)C)NC(=O)[C@H](CC(N)=O)NC(=O)[C@@H]1CCCN1C(=O)[C@H](CCCNC(=N)N)NC2=O [compound 706] (H-DCLG[Abu]MRKCIPDNDKCCRPNLVCSRTHEWCKYVF-NH2; disulfide 2-17, 9-23, 16-30)	< 5.30	< 4.30	5.85
CC[C@@H]1NC(=O)CNC(=O)[C@H](CC(C)C)NC(=O)[C@@H](NC(=O)[C@@H](N)CC(=O)O)CSSC[C@@H]2NC(=O)[C@@H]3CSSC[C@@H](C(=O)N[C@@H](CCCCN)C(=O)N[C@@H](Cc4ccc(O)cc4)C(=O)N[C@H](C(=O)N[C@@H](Cc4ccccc4)C(N)=O)C(C)C)NC(=O)[C@H](Cc4c[nH]c5ccccc45)NC(=O)[C@H](CCC(=O)O)NC(=O)[C@H](Cc4c[nH]cn4)NC(=O)[C@H]([C@@H](C)O)NC(=O)[C@H](CCCNC(=N)N)NC(=O)[C@H](CO)NC(=O)[C@H](CSSC[C@H](NC(=O)[C@H](CCCCN)NC(=O)[C@H](CCCNC(=N)N)NC(=O)[C@H](CC(C)C)NC1=O)C(=O)N[C@@H]([C@@H](C)CC)C(=O)N1CCC[C@H]1C(=O)N[C@@H](CC(=O)O)C(=O)N[C@@H](CC(N)=O)C(=O)N[C@@H](CC(=O)O)C(=O)N[C@@H](CCCCN)C(=O)N3)NC(=O)[C@H](C(C)C)NC(=O)[C@H](CC(C)C)NC(=O)[C@H](CC(N)=O)NC(=O)[C@@H]1CCCN1C(=O)[C@H](CCCNC(=N)N)NC2=O [compound 707] (H-DCLG[Abu]LRKCIPDNDKCCRPNLVCSRTHEWCKYVF-NH2; disulfide 2-17, 9-23, 16-30)	< 5.30	5.22	5.92
CCC[C@@H]1NC(=O)CNC(=O)[C@H](CC(C)C)NC(=O)[C@@H](NC(=O)[C@@H](N)CC(=O)O)CSSC[C@@H]2NC(=O)[C@@H]3CSSC[C@@H](C(=O)N[C@@H](CCCCN)C(=O)N[C@@H](Cc4ccc(O)cc4)C(=O)N[C@H](C(=O)N[C@@H](Cc4ccccc4)C(N)=O)C(C)C)NC(=O)[C@H](Cc4c[nH]c5ccccc45)NC(=O)[C@H](CCC(=O)O)NC(=O)[C@H](Cc4c[nH]cn4)NC(=O)[C@H]([C@@H](C)O)NC(=O)[C@H](CCCNC(=N)N)NC(=O)[C@H](CO)NC(=O)[C@H](CSSC[C@H](NC(=O)[C@H](CCCCN)NC(=O)[C@H](CCCNC(=N)N)NC(=O)[C@H](CC(C)C)NC1=O)C(=O)N[C@@H]([C@@H](C)CC)C(=O)N1CCC[C@H]1C(=O)N[C@@H](CC(=O)O)C(=O)N[C@@H](CC(N)=O)C(=O)N[C@@H](CC(=O)O)C(=O)N[C@@H](CCCCN)C(=O)N3)NC(=O)[C@H](C(C)C)NC(=O)[C@H](CC(C)C)NC(=O)[C@H](CC(N)=O)NC(=O)[C@@H]1CCCN1C(=O)[C@H](CCCNC(=N)N)NC2=O [compound 708] (H-DCLG[Nva]LRKCIPDNDKCCRPNLVCSRTHEWCKYVF-NH2; disulfide 2-17, 9-23, 16-30)	5.55	4.51	6.43
CC[C@H](C)[C@@H]1NC(=O)[C@@H]2CSSC[C@@H]3NC(=O)[C@H](C(C)C)NC(=O)[C@H](CC(C)C)NC(=O)[C@H](CC(N)=O)NC(=O)[C@@H]4CCCN4C(=O)[C@H](CCCNC(=N)N)NC(=O)[C@H](CSSC[C@H](NC(=O)[C@@H](N)CC(=O)O)C(=O)N[C@@H](CC(C)C)C(=O)NCC(=O)N[C@@H](C(C)C)C(=O)N[C@@H](CC(C)C)C(=O)N[C@@H](CCCNC(=N)N)C(=O)N[C@@H](CCCCN)C(=O)N2)NC(=O)[C@H](CSSC[C@@H](C(=O)N[C@@H](CCCCN)C(=O)N[C@@H](Cc2ccc(O)cc2)C(=O)N[C@H](C(=O)N[C@@H](Cc2ccccc2)C(N)=O)C(C)C)NC(=O)[C@H](Cc2c[nH]c4ccccc24)NC(=O)[C@H](CCC(=O)O)NC(=O)[C@H](Cc2c[nH]cn2)NC(=O)[C@H]([C@@H](C)O)NC(=O)[C@H](CCCNC(=N)N)NC(=O)[C@H](CO)NC3=O)NC(=O)[C@H](CCCCN)NC(=O)[C@H](CC(=O)O)NC(=O)[C@H](CC(N)=O)NC(=O)[C@H](CC(=O)O)NC(=O)[C@@H]2CCCN2C1=O [compound 709] (H-DCLGVLRKCIPDNDKCCRPNLVCSRTHEWCKYVF-NH2; disulfide 2-17, 9-23, 16-30)	5.32	4.37	6.13
CSCC[C@@H]1NC(=O)[C@H](C(C)C)NC(=O)CNC(=O)[C@H](CC(C)C)NC(=O)[C@@H](NC(=O)[C@@H](N)CC(=O)O)CSSC[C@@H]2NC(=O)[C@@H]3CSSC[C@@H](C(=O)N[C@@H](CCCCN)C(=O)N[C@@H](Cc4ccc(O)cc4)C(=O)N[C@H](C(=O)N[C@@H](Cc4ccccc4)C(N)=O)C(C)C)NC(=O)[C@H](Cc4c[nH]c5ccccc45)NC(=O)[C@H](CCCCN)NC(=O)[C@H](Cc4c[nH]cn4)NC(=O)[C@H]([C@@H](C)O)NC(=O)[C@H](CCCNC(=N)N)NC(=O)[C@H](CO)NC(=O)[C@H](CSSC[C@H](NC(=O)[C@H](CCCCN)NC(=O)[C@H](CCCNC(=N)N)NC1=O)C(=O)N[C@@H](CC(=O)O)C(=O)N1CCC[C@H]1C(=O)N[C@@H](CC(=O)O)C(=O)N[C@@H](CC(N)=O)C(=O)N[C@@H](CC(=O)O)C(=O)N[C@@H](CCCCN)C(=O)N3)NC(=O)[C@H](C(C)C)NC(=O)[C@H](CC(C)C)NC(=O)[C@H](CC(N)=O)NC(=O)[C@@H]1CCCN1C(=O)[C@H](CCCNC(=N)N)NC2=O [compound 710] (H-DCLGVMRKCDPDNDKCCRPNLVCSRTHKWCKYVF-NH2; disulfide 2-17, 9-23, 16-30)	5.89	4.46	6.16
CC[C@H](C)[C@@H]1NC(=O)[C@@H]2CSSC[C@@H]3NC(=O)[C@H](C(C)C)NC(=O)[C@H](CC(C)C)NC(=O)[C@H](CC(N)=O)NC(=O)[C@@H]4CCCN4C(=O)[C@H](CCCNC(=N)N)NC(=O)[C@H](CSSC[C@H](NC(=O)[C@@H](N)CC(=O)O)C(=O)N[C@@H](CC(C)C)C(=O)NCC(=O)N[C@@H](C(C)C)C(=O)N[C@@H](CCSC)C(=O)N[C@@H](CCCNC(=N)N)C(=O)N[C@@H](CCCCN)C(=O)N2)NC(=O)[C@H](CSSC[C@@H](C(=O)N[C@@H](CCCCN)C(=O)N[C@@H](Cc2ccc(O)cc2)C(=O)N[C@H](C(=O)N[C@@H](Cc2ccccc2)C(N)=O)C(C)C)NC(=O)[C@H](Cc2c[nH]c4ccccc24)NC(=O)[C@H](CCCCN)NC(=O)[C@H](Cc2c[nH]cn2)NC(=O)[C@H]([C@@H](C)O)NC(=O)[C@H](CCCNC(=N)N)NC(=O)[C@H](CO)NC3=O)NC(=O)[C@H](CCCCN)NC(=O)[C@H](CC(=O)O)NC(=O)[C@H](CC(N)=O)NC(=O)[C@H](CCC(=O)O)NC(=O)[C@@H]2CCCN2C1=O [compound 711] (H-DCLGVMRKCIPENDKCCRPNLVCSRTHKWCKYVF-NH2; disulfide 2-17, 9-23, 16-30)	6.12	4.59	6.32
CSCC[C@@H]1NC(=O)[C@H](C(C)C)NC(=O)CNC(=O)[C@H](CC(C)C)NC(=O)[C@@H](NC(=O)[C@@H](N)CC(=O)O)CSSC[C@@H]2NC(=O)[C@@H]3CSSC[C@@H](C(=O)N[C@@H](CCCCN)C(=O)N[C@@H](Cc4ccc(O)cc4)C(=O)N[C@H](C(=O)N[C@@H](Cc4ccccc4)C(N)=O)C(C)C)NC(=O)[C@H](Cc4c[nH]c5ccccc45)NC(=O)[C@H](CCCCN)NC(=O)[C@H](Cc4c[nH]cn4)NC(=O)[C@H]([C@@H](C)O)NC(=O)[C@H](CCCNC(=N)N)NC(=O)[C@H](CO)NC(=O)[C@H](CSSC[C@H](NC(=O)[C@H](CCCCN)NC(=O)[C@H](CCCNC(=N)N)NC1=O)C(=O)N[C@@H](CC(=O)O)C(=O)N1CCC[C@H]1C(=O)N[C@@H](CCC(=O)O)C(=O)N[C@@H](CC(N)=O)C(=O)N[C@@H](CC(=O)O)C(=O)N[C@@H](CCCCN)C(=O)N3)NC(=O)[C@H](C(C)C)NC(=O)[C@H](CC(C)C)NC(=O)[C@H](CC(N)=O)NC(=O)[C@@H]1CCCN1C(=O)[C@H](CCCNC(=N)N)NC2=O [compound 712] (H-DCLGVMRKCDPENDKCCRPNLVCSRTHKWCKYVF-NH2; disulfide 2-17, 9-23, 16-30)	5.77	4.47	6.34
